Assays:
SARS-CoV-2 PL^pro [1] = molecular target: T1, SARS-CoV-2 PL^pro (Severe acute respiratory syndrome coronavirus 2, UniProt P0DTD1); test: Thermal shift binding assay; conditions: effect on stability of PL^pro
SARS-CoV-2 PL^pro [2] = molecular target: T1, SARS-CoV-2 PL^pro; test: cell-based
SARS-CoV PL^pro = conditions: read-out: IC50 against SARS-CoV PL^pro; cited from earlier work
MERS-CoV PL^pro = conditions: read-out: IC50 against MERS-CoV PL^pro; cited from earlier work
SARS-CoV-2 PL^pro [3] = molecular target: T1, SARS-CoV-2 PL^pro; type: biochemical; conditions: 200 nM PL^pro, 5 mM DTT, pH 7.5, 30 °C; highest concentration 60 μM

| Structure (SMILES) | TSA binding result (in words) (SARS-CoV-2 PL^pro [1]) | FlipGFP EC50 (SARS-CoV-2 PL^pro [2]) | IC50 (SARS-CoV PL^pro) [µM] | IC50 (MERS-CoV PL^pro) [µM] | Validation FRET IC50 (SARS-CoV-2 PL^pro [3]) | EC50 (SARS-CoV-2 PL^pro [2]; FlipGFP EC50) [µM] | Cytotoxicity in FlipGFP assay (in words) (293T cells) |
| --- | --- | --- | --- | --- | --- | --- | --- |
| Sc1ncnc2nc[nH]c12 [6-mercaptopurine] | not active | not active | 21.6 | 26.9 | not active |  |  |
| Nc1nc2nc[nH]c2c(=S)[nH]1 [6-thioguanine] | did not show binding | not active | 5 | 24.4 |  |  |  |
| C[C@H]1COC2=C1C(=O)C(=O)c1c2ccc2c1CCCC2(C)C [Cryptotanshinone] | destabilization | not active |  |  |  |  |  |
| Cc1cccc2c3c(ccc12)C1=C(C(=O)C3=O)[C@@H](C)CO1 [Dihydrotanshinone I] | did not bind | not active |  |  |  |  |  |
| Cc1coc2c1C(=O)C(=O)c1c-2ccc2c1CCCC2(C)C [Tanshinone IIA] | denaturation of the protein (no melting peak) | not active |  |  |  | > 20 |  |
| Cc1coc2c1C(=O)C(=O)c1c-2ccc2c(C)cccc12 [Tanshinone I] | destabilization | not active |  |  |  |  |  |
| COCCn1c2c([n+](Cc3cnccn3)c1C)C(=O)c1ccccc1C2=O [YM155] | no effect | not conclusive |  |  |  |  | cytotoxic |

From publication PMC8806001 (ACS Pharmacology & Translational Science, 2022)
